We go through three molecules from US20110195432A1, “METHODS FOR THE SELECTION OF THERAPEUTIC TREATMENTS FOR CANCER” (priority 2008, published 2011).

Residues, ends and D or L forms follow the SMILES beside them. *: point of attachment. Cbz = O=C(OCc1ccccc1)*

Experiment [1] concerns AR. Nature of the experiment: Western blot of AR protein levels, VCaP cells. It counts as cell-based. To be noted: TSA or increasing concentrations of CDDO-Imidazole (24 hours), compared with sulforaphane results.
Experiment [2] has as its system HDAC6. Nature of the experiment: Western blot of HDAC6 protein levels, LNCaP cells. As to conditions: LNCaP cells. It counts as cell-based.
The test system of experiment [3] is HDAC6. Nature of the experiment: Western blot of HDAC6 protein levels, VCaP cells. As to conditions: increasing concentrations of CDDO-Imidazole, 24 hours. It counts as cell-based. From the text: (§1) The vehicle sample was set to 1.
A further experiment relates to acetylated tubulin. Nature of the experiment: Western blot of acetylated tubulin, VCaP cells. It counts as cell-based. As to conditions: increasing concentrations of CDDO-Imidazole, 24 hours.
Text: as §1

In experiment [4] the test system is AR. Nature of the experiment: Western blot of AR protein levels, LNCaP cells. It counts as cell-based. As to conditions: LNCaP cells.
The subject of the next experiment is acetylated alpha-tubulin. Nature of the experiment: Western blot of acetylated alpha-tubulin, LNCaP cells. To be noted: LNCaP cells; increasing concentrations of CDDO-Imidazole, 24 hours. Format: cell-based. On the procedure:
as §1
LNCaP cells were transiently transfected with either a siRNA sequence complementary to the luciferase gene ([…]; SEQ ID NO: 8) or to HDAC6 ([…]; SEQ ID NO: 9) using DharmaFECT 3 transfection reagent for a final concentration of 100 nM (Dharmacon, Lafayette, Colo.). At 48, 72, and 96 hours post-transfection, cells were harvested. Levels of protein expression by Western blot were quantified.

A further experiment concerns Her2Neu protein. To be noted: breast cancer cells; through proteasomal degradation; cited from earlier work.
Experiment [5] relates to AR. Nature of the experiment: Western blot of AR protein levels, LNCaP cells. Format: cell-based. On the procedure:
Immunoprecipitation and immunoblotting were performed as described (Qian et al., Clin. Cancer Res. 12:634-42, 2006). The following antibodies used in immunoblotting or immunoprecipitations (indicated dilutions are for immunoblotting): AR (1:1000, #06-680 Upstate, Billerica, Mass.); acetylated lysine (#05-515 Upstate, Billerica, Mass.); acetylated tubulin (1:2000, #T6793 Sigma, St. Louis, Mo.); alpha-tubulin (1:10,000, #T6074 Sigma, St. Louis, Mo.); beta-actin (1:5000, #A5441 Sigma, St. Louis, Mo.); ERG-1/2/3, (1:5000, #sc-354X Santa Cruz, Santa Cruz, Calif.); FLAG epitope (#F7425 Sigma, St. Louis, Mo.); GAPDH (1:5000, #sc-32233 Santa Cruz, Santa Cruz, Calif.); HDAC6 (1:1000, #sc-11420 Santa Cruz); HSP90 (1:1000, #SPA-840 Stressgen, Ann Arbor, Mich.); mouse IgG (#sc-2025 Santa Cruz, Santa Cruz, Calif.). The following secondary antibodies were used: ECL-conjugated anti-mouse IgG, (1:5000, #A6782 Sigma, St. Louis, Mo.); ECL-conjugated anti-rabbit IgG (1:3000, #NA934 Amersham, Piscataway, N.J. or 1:10,000, #sc-2004 Santa Cruz, Santa Cruz, Calif.). X-ray exposures were scanned as uncompressed images and bands were quantified by densitometry with Quantity One software (Bio-Rad, Hercules, Calif.). Intensity values were normalized to those of the endogenous controls. The vehicle sample was set to 1. Enrichment was calculated as: (intensity IP/intensity input)/(intensity IgG/intensity input) or intensity IP/input (FIG. 1B).
LNCaP cells were treated with sulforaphane in a dose-response (5 μM to 20 μM) and time-course (12 and 24 hours) manner to investigate the effect of HDAC6 inhibition on AR protein levels. Western blotting was performed as described in Example 1. […]

Experiment [6] has as its system AR. Nature of the experiment: Real-time PCR of AR gene expression, LNCaP cells. Format: cell-based. To be noted: increasing doses of sulforaphane, or TSA, vehicle set to 1. From the text:
(§2) All samples were run in triplicate. The vehicle-treated sample was set to 1.

The test system of experiment [7] is AR. Nature of the experiment: Real-time PCR of AR gene expression, VCaP cells. As to conditions: 24 hours, increasing doses of sulforaphane, or TSA, vehicle set to 1. It counts as cell-based.
Text: as §2

For the molecule `CC1(C)CC[C@]2(C(=O)n3ccnc3)CC[C@]3(C)[C@H](C(=O)C=C4[C@@]5(C)C=C(C#N)C(=O)C(C)(C)[C@@H]5CC[C@]43C)[C@@H]2C1` [CDDO-Imidazole], the AR protein levels result in the experiment with AR [1] is reported as “reduced AR protein levels”; in the experiment with AR [4] (TSA or increasing concentrations of CDDO-Imidazole (24 hours), compared with sulforaphane results), “reduced AR protein levels”. Also, the HDAC6 protein entry in the experiment with HDAC6 [2] (increasing concentrations of CDDO-Imidazole, 24 hours) is recorded as “depletes HDAC6 in a dose-dependent manner”; in the experiment with HDAC6 [3] it was “depletes HDAC6 in a dose-dependent manner”. The tubulin acetylation result in the experiment with acetylated tubulin and in the experiment with acetylated alpha-tubulin was “increased tubulin acetylation” each time. In addition, the Her2Neu protein levels result with Her2Neu protein is on record as “deplete Her2Neu protein levels”.
As to `CC(/C=C/C(=O)NO)=C\[C@@H](C)C(=O)c1ccc(N(C)C)cc1` [TSA, trichostatin A], the HDAC6 protein levels result with HDAC6 [2] (16 hours, 300 nM TSA without or with 20 μM MG132) is recorded as “minimal effects”. For the same molecule, in the experiment on AR [5] (24 hours, sulforaphane 20 μM or 300 nM TSA with 10 μM MG132), the “AR steady state level with simultaneous MG132 treatment” value was “restored the AR steady state level close to that seen in the vehicle-treated control”. The “AR protein in the absence of MG132” value in the experiment on AR [5] (24 hours, sulforaphane 20 μM or 300 nM TSA, versus vehicle-treated cells) is recorded as “dramatic reductions”. For the same molecule, the “AR protein levels at 24 hours” value in the experiment with AR [5] (sulforaphane 15 μM and 20 μM, TSA) is given as “recovered”. In addition, the AR transcripts entry in the experiment on AR [6] and with AR [7] was “suppressed AR transcripts” throughout.
Turning to `CC(C)C[C@@H](C=O)NC(=O)[C@H](CC(C)C)NC(=O)[C@H](CC(C)C)NC(=O)OCc1ccccc1` [MG132] (Cbz-Leu-Leu-Leu-aldehyde), the “AR protein levels, MG132 alone” value with AR [4] (24 hours, 10 μM MG132 versus vehicle) is on record as “did not change AR protein levels”.
